Assay results reported in patent publication US20100297017A1, “Method for Synthesizing and Using Pegylated Peptide-Photoactive Chromophore Conjugates and Micellular Formulations Thereof” (priority 2008, published 2010).
Like-named read-outs stand apart in the source and are kept apart here.

Experiments:
[1] = Solubility in aqueous solutions
From the text: Therefore, two different approaches for modifying the sPPp conjugate were investigated to improve its in vivo targetability.

[2] = tested on: EGFR-overexpressing A-431 tumor xenograft; assay: Tumor growth delay photodynamic therapy (PDT) studies, single and repeat treatment (Example 4, FIGS. 4 and 5); type: in vivo, athymic NCr nu/nu mice; conditions: single PDT, 60 nmole PPa content per 20 g, 100 J/cm^2 at ~16 hours post-injection
Procedure: All formulations were administered at a dosage equivalent to 60 nmole PPa content per 20 gram body weight in a 200 μl bolus injection via the tail vein (or via retro-orbital injection when tail vein injections were not feasible). A 670 nm diode laser light dose of 100 J/cm^2, delivered at ˜50 mW/cm^2, was given at ˜16 hours post-injection over an area covering the entire tumor surface as well as a 2 to 3 mm border extending beyond the edge of the tumor. The tumor model was the EGFR-overexpressing A-431 tumor xenograft grown in athymic NCr nu/nu mice (5-week old mice from the National Cancer Institute at Frederick, Md.). Data series were plotted so that the time at which each tumor reached ˜150 mm^3 corresponds to 0 days; i.e., the approximate time at which the PDT light dose was administered.
Control experiments were also performed, which included injecting mice with the sPPp formulations but not exposing them to light.

[3] = tested on: A-431 human tumor xenografts; assay: Preliminary tumor growth delay studies after phototherapy (Example 3, FIG. 3); type: in vivo, mice
Procedure: Mice were implanted with A-431 tumor xenografts and were administered phototherapy when their tumor sizes reached approximately 150 mm^3. Tumors were then regularly measured to determine the time it took for the tumors to reach four times their initial treatment size. To allow for easier comparisons, tumor growth delay data sets have been aligned so that the 0-day time point corresponds to a tumor volume of 150 mm^3. Diamond, control mice (no PPa or sPPp conjugate; no light), lumped data set, n=6. Squares, mice treated with 60 nmoles surfactant-solubilized free PPa in 2% ethanol/1% TWEEN 80/PBS for a ˜16 hour incubation and treated with 100 J/(cm*cm) light, n=4. Triangles, mice treated with 60 nmoles partially PEG2(20 kDa)ylated (˜63 molar %) sPPp conjugate in PBS for a ˜16 hour incubation and treated with 500 J/(cm*cm) light, n=3.
Preliminary tumor growth delay studies comparing the in vivo phototherapeutic effects of the partially PEG2(20 kDa)ylated sPPp conjugate to the gold standard surfactant-solubilized free PPa solution are shown in FIG. 3. A-431 human tumor xenografts were grown in mice as previously described, and when tumors reached ˜150 mm^3, mice were injected via the tail vein or retro-orbitally with 60 to 80 nmoles PPa content in a bolus volume of approximately 200 microliters. Sixteen hours post-injection, the entire tumor surface along with a 1-2 mm margin of skin around the tumor edge was uniformly irradiated with the expanded beam of a 670 nm laser at an incident fluence rate of ˜50 mW/cm^2. Six mice that received no injections and no irradiations served as a control group. Tumor growth delays resulting from the tumoricidal effects of the phototherapeutic treatments were determined with respect to the control group. For control mice, it took roughly 8.1 days for tumors to quadruple in size from 150 mm^3 to 600 mm^3, and for mice treated with 60 nmoles surfactant-solubilized free PPa and 100 J/cm^2 light, it took only slightly longer, 12.6±2.4 days (i.e., a tumor growth delay of ˜4.5 days compared to the control group). […]

[4] = tested on: A-431 human epidermoid carcinoma tumor xenografts; assay: Time-coursed fluorescence imaging in tumor xenograft model with ROI analysis; type: in vivo, athymic nude mice
Procedure: ROI measurements were done using ImageJ software (Rasband 1997-2007). For FIGS. 2A and 2B, image exposure times were 0.65 seconds, whereas image exposure times in FIG. 2C were 4 seconds in order to compensate for the smaller injected dosage of PPa content.
To assess the in vivo delivery characteristics of sPPp conjugate formulations, time-coursed fluorescence imaging studies were performed in a tumor xenograft model grown in athymic nude mice. Tumor xenografts were grown subcutaneously in the left upper chest region using the A-431 human epidermoid carcinoma cell line (American Type Culture Collection, Manassas, Va.), which is ideal for EGFR-targeting studies given that these cells overexpress ˜1×10^6-2.6×10^6 EGFR/cell (Haigler, et al. (1978) Proc. Natl. Acad. Sci. USA 75:3317-21; Mendelsohn (1997) Clin. Cancer Res. 3:2703-7). When tumor sizes reached greater than ˜100 mm^3, mice were imaged pre-injection, and then free PPa or sPPp conjugate formulations that had been sterile filtered through a 0.2 micron membrane were injected via tail vein or retro-orbitally at dosages ranging from ˜10 to ˜80 nmoles PPa content per mouse (mice weighed ˜20 g) in a single bolus volume of approximately 200 microliters. A series of post-injection images were then taken over a period of time until mouse fluorescence levels approached pre-injection baseline levels. Images were acquired of the ventral surface of the animals using a custom built surface-weighted fluorescence imager with a 670 nm laser for excitation and a 685 nm long-pass emission filter for detection (Pogue, et al. (2004) Technol. Cancer Res. Treat. 3:15-21). […]
As a quantitative measure of the tumor contrast generated by the surfactant-solubilized free PPa solution and the different sPPp conjugate formulations, region of interest (ROI) mean pixel values of the tumor area and control adjacent chest area were measured from the imaging data sets.

[5] = 60 nmoles, 100 J/cm^2 light, 16 hours post-injection

Compound	solubility in aqueous solutions [1]	delay in tumor growth compared to untreated control mice [2]	time for tumors to quadruple in size from 150 mm^3 to 600 mm^3 [3, 5] [days]	tumor growth delay compared to the control group [3, 5] [days]	lethality ([3]; irradiations performed immediately after injection)	solubility in aqueous solutions ([1]; aqueous solutions)	peak tumor area to adjacent chest area mean pixel value ratio (tumor contrast) ([4]; 60 nmoles PPa in 2% ethanol/1% TWEEN 80/PBS, at ~16 hours post-injection, FIG. 2A)	clearance from the circulation ([4]; A-431 tumor-bearing mice, single bolus injection, fluorescence imaging)	tumor fluorescence at time of peak tumor contrast ([4]; FIG. 2)
C=CC1=C(C)c2cc3[nH]c(c4c5nc(cc6[nH]c(cc1n2)c(C)c6CC)C(C)=C5C(=O)C4)C(CCC(=O)NC(CC(=O)O)C(=O)NCCCCC(N)C(=O)NCCOCCOCCOCCOCCOCCOCCOCCOCCOCCOCCOCCOCCC(=O)NCCOCCOCCOCCOCCOCCOCCOCCOCCOCCOCCOCCOCCC(N)=O)C3C (stereo not drawn) [sPPp]	highly soluble and readily dissolved in aqueous solutions								
pyropheophorbide-a [free PPa]		no significant delay in tumor growth	12.6 ± 2.4	~4.5	very high incidence of lethality	required potentially harmful solubilizers to prevent the formation of large insoluble aggregates	~1.5	cleared very rapidly from the circulation via the hepatobiliary system	already approaching pre-injection fluorescence levels
